In one test the test system is RKO. The test can be described thus: Cytotoxicity against Wnt-independent human RKO cells assessed as cell viability after 24 hrs by fluorescence assay. It is filed as cell-based.
A short description of test [1]: Cytotoxicity against Wnt-dependent human DLD1 cells assessed as cell viability after 24 hrs by fluorescence assay. To be noted: DLD-1, 24 h. The class given is functional, cell-based.
For another test, the system named is HEK293. The test can be described thus: Cytotoxicity against HEK293 cells assessed as cell viability after 24 hrs by fluorescence assay. The class given is cell-based. Particulars: Homo sapiens, HEK293, 24 h.
Test [2] relates to HEK-293T. The test can be described thus: Cytotoxicity against HEK293T cells assessed as cell viability after 24 hrs by fluorescence assay. The class given is cell-based. To be noted: Homo sapiens.
Another test concerns HCT-116. Kind of test: Cytotoxicity against Wnt-dependent human HCT116 cells assessed as cell viability after 24 hrs by fluorescence assay. It is filed as functional, cell-based. To be noted: HCT-116, 24 h.
The next test deals with STF/293. Kind of test: (§1) Inhibition of Wnt/beta-catenin in human STF/293 cells assessed as inhibition of TCF/beta catenin transcription after 24 hrs by SuperTOPFlash reporter gene assay. It is filed as cell-based.
A short description of test [3]: as §1. The class given is cell-based. Particulars: STF/293, 24 h.
The test system of test [4] is HEK-293T. The test can be described thus: Inhibition of Wnt/beta-catenin in HEK293T cells assessed as inhibition of TCF/beta catenin transcription at 10 to 40 uM after 24 hrs by SuperFOPFlash reporter gene assay. The class given is cell-based. To be noted: Homo sapiens. On the technique in general: Reporter assays use an easily measured gene product as a stand-in for the process of interest.

Test [5] concerns SW480. Kind of test: Cytotoxicity against Wnt-dependent human SW480 cells assessed as cell viability after 24 hrs by fluorescence assay. It is filed as functional, cell-based. To be noted: SW480, 24 h.
The subject of test [6] is HEK-293T. The test can be described thus: Inhibition of Wnt/beta-catenin in HEK293T cells assessed as inhibition of TCF/beta catenin transcription at 5 to 20 uM after 24 hrs by SuperFOPFlash reporter gene assay. The class given is cell-based. Particulars: Homo sapiens.
Test [7] concerns SW480. Kind of test: Inhibition of Wnt/beta-catenin in human SW480 cells assessed as beta-catenin phosphorylation at Ser33/Ser37/Thr40 at 10 to 40 uM after 24 hrs by Western blot analysis. The class given is cell-based. (A western blot detects proteins with antibodies after separation by electrophoresis.)
Test [8] relates to SW480. The test can be described thus: Inhibition of Wnt/beta-catenin in human SW480 cells assessed as decrease in beta-catenin mRNA level at 40 uM by real time RT-PCR analysis. It is filed as cell-based.
Test [9] has as its system SW480. Kind of test: Effect on CK1alpha expression in human SW480 cells at 10 to 40 uM after 24 hrs by Western blot analysis. The class given is functional, cell-based.
For test [10], the system named is SW480. The test can be described thus: Inhibition of Wnt/beta-catenin in human SW480 cells assessed as decrease in cytosolic beta-catenin level at 10 to 40 uM after 24 hrs by Western blot analysis. The class given is cell-based.
Test [11] concerns SW480. The test can be described thus: Inhibition of Wnt/beta-catenin in proteasome inhibitor MG132 pretreated human SW480 cells assessed as decrease in beta-catenin level at 40 uM co-treated with MG132 for 12 hrs by Western blot analysis. It is filed as cell-based.
Test [12] relates to SW480. Kind of test: Effect on GSK3beta expression in human SW480 cells at 10 to 40 uM after 24 hrs by Western blot analysis. The class given is functional, cell-based.
The test system of test [13] is SW480. Kind of test: Inhibition of Wnt/beta-catenin in human SW480 cells assessed as decrease in nuclear beta-catenin level at 10 to 40 uM after 24 hrs by Western blot analysis. The class given is cell-based.
The subject of test [14] is SW480. The test can be described thus: Inhibition of Wnt/beta-catenin in human SW480 cells assessed as beta-catenin phosphorylation at Ser45 at 10 to 40 uM after 24 hrs by Western blot analysis. The class given is cell-based.

The source made the active and inactive calls. The rule behind the calls is not given here.

`CC[C@H]1C[C@@H]2CN3CCc4c([nH]c5ccc(OC)cc45)[C@](C(=O)OC)(C2)[C@H]13` [VOACANGINE]: the IC50 in the test with RKO is greater than 40 µM; in test [1], greater than 40 µM; with HEK293 it was greater than 40 µM; with HEK-293T [2], greater than 40 µM; in the test with HCT-116, greater than 40 µM; in [3], 11.5 µM. For the same molecule, the IC50 with SW480 [5] was greater than 40 µM. Also, in the test on STF/293, the inhibition entry is “Dose-dependent effect”. Further, the inhibition entry in the test with HEK-293T [4] was “inactive”.

Turning to `CC[C@H]1C[C@@H]2CN3CCc4c([nH]c5cc(OC)ccc45)[C@](C(=O)OC)(C2)[C@H]13` [ISOVOACANGINE], the IC50 with RKO was greater than 40 µM; in test [1], greater than 40 µM; in the test with HEK293, 35.6 µM; in the test with HEK-293T [2], greater than 40 µM; in the test with HCT-116 it was 24.4 µM; in test [3], 6 µM. For the same molecule, in the test with SW480 [5], the IC50 was found to be 11.2 µM. Also, the inhibition entry in the test on HEK-293T [6] is “Active”. The inhibition result in the test with STF/293 was “Dose-dependent effect”.

Consider `CC[C@H]1C[C@@H]2CN3CC[C@]4(O)C(=Nc5ccccc54)[C@](C(=O)OC)(C2)[C@H]13` [CORONARIDINE HYDROXYINDOLENINE], for which the IC50 is greater than 40 µM with RKO; greater than 40 µM in [1]; greater than 40 µM with HEK293; greater than 40 µM with HEK-293T [2]; greater than 40 µM with HCT-116; 7.3 µM in test [3]. Moreover, in the test on SW480 [5], the IC50 is greater than 40 µM. Moreover, the inhibition result with HEK-293T [6] is “Active”. For the same molecule, the inhibition entry with STF/293 was “Dose-dependent effect”.

As to `CC[C@H]1C[C@@H]2CN3CCc4c([nH]c5ccccc45)[C@](C(=O)OC)(C2)[C@H]13` [CORONARIDINE], the inhibition entry in the test with SW480 [7] and in the test with SW480 [14] was “inactive” in each case. The IC50 in the test with RKO is greater than 40 µM; in test [1], 24.4 µM; in the test with HEK293, 31.7 µM; with HEK-293T [2], greater than 40 µM; with HCT-116, 11.6 µM; in [3], 5.8 µM. For the same molecule, the IC50 in the test with SW480 [5] stood at 10.4 µM. The inhibition result with SW480 [8], with HEK-293T [6], in the test on SW480 [10], with SW480 [11] and in the test with SW480 [13] was “Active” in each case. The result in the test on SW480 [9] and with SW480 [12] was inactive. Also, in the test on STF/293, the inhibition result was “Dose-dependent effect”.

By IC50 is commonly meant the concentration that inhibits the measured activity by half.

The values are drawn from ChEMBL document CHEMBL3608238, “Coronaridine, an iboga type alkaloid from Tabernaemontana divaricata, inhibits the Wnt signaling pathway by decreasing β-catenin mRNA expression” (Bioorg Med Chem Lett, 2015).
